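Growth conditions: 96-well plates. Treatment: test compound, 48 hours, 5 concentrations. Analysis: linear interpolation between bracketing concentrations; unreached endpoints set to highest concentration. TGI is the concentration that stops growth completely.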
How the values were obtained:
Assay in all cases: NCI tumour cell line growth inhibition, 48 h
CCRF-CEM leukemia = test system: CCRF-CEM leukemia
HS 578T breast = test system: HS 578T breast
A549 NSCLC = test system: A549 NSCLC
NCI-H460 lung = test system: NCI-H460 lung
MOLT-4 leukemia = test system: MOLT-4 leukemia
OVCAR-8 ovarian = test system: OVCAR-8 ovarian
RXF 393 renal = test system: RXF 393 renal
HL-60(TB) leukemia = test system: HL-60(TB) leukemia
RPMI-8226 leukemia = test system: RPMI-8226 leukemia
NCI/ADR-RES ovarian = test system: NCI/ADR-RES ovarian
DU-145 prostate = test system: DU-145 prostate
SK-MEL-28 melanoma = test system: SK-MEL-28 melanoma
SN12C renal = test system: SN12C renal
HT29 colon = test system: HT29 colon
SNB-75 CNS = test system: SNB-75 CNS
UACC-62 melanoma = test system: UACC-62 melanoma
HOP-92 NSCLC = test system: HOP-92 NSCLC
TK-10 renal = test system: TK-10 renal
T-47D breast = test system: T-47D breast
SK-MEL-2 melanoma = test system: SK-MEL-2 melanoma
SR leukemia = test system: SR leukemia
A498 renal = test system: A498 renal
NCI-H226 lung = test system: NCI-H226 lung
OVCAR-3 ovarian = test system: OVCAR-3 ovarian
IGROV1 ovarian = test system: IGROV1 ovarian
HCT-15 colon = test system: HCT-15 colon
NCI-H23 lung = test system: NCI-H23 lung
NCI-H522 lung = test system: NCI-H522 lung
CAKI-1 renal = test system: CAKI-1 renal
SF-539 CNS = test system: SF-539 CNS
K-562 leukemia = test system: K-562 leukemia
OVCAR-4 ovarian = test system: OVCAR-4 ovarian
OVCAR-5 ovarian = test system: OVCAR-5 ovarian
SK-OV-3 ovarian = test system: SK-OV-3 ovarian
HCT-116 colon = test system: HCT-116 colon
COLO 205 colon = test system: COLO 205 colon
MALME-3M melanoma = test system: MALME-3M melanoma
MDA-N = test system: MDA-N
SF-295 CNS = test system: SF-295 CNS
MCF7 breast = test system: MCF7 breast
SW-620 colon = test system: SW-620 colon
LOX IMVI melanoma = test system: LOX IMVI melanoma
U251 CNS = test system: U251 CNS
BT-549 breast = test system: BT-549 breast
M14 melanoma = test system: M14 melanoma
HOP-62 NSCLC = test system: HOP-62 NSCLC
UO-31 renal = test system: UO-31 renal
UACC-257 melanoma = test system: UACC-257 melanoma
PC-3 prostate = test system: PC-3 prostate
SK-MEL-5 melanoma = test system: SK-MEL-5 melanoma
SF-268 CNS = test system: SF-268 CNS
786-0 renal = test system: 786-0 renal
ACHN renal = test system: ACHN renal
HCC-2998 colon = test system: HCC-2998 colon
MDA-MB-231 breast = test system: MDA-MB-231 breast
SNB-19 CNS = test system: SNB-19 CNS
MDA-MB-435 = test system: MDA-MB-435
EKVX NSCLC = test system: EKVX NSCLC
KM12 colon = test system: KM12 colon

## COc1ccc(CSC2=C(C#N)C(=O)NC3(CCCCC3)S2)cc1
CCRF-CEM leukemia
  TGI: 24.7 µM
HS 578T breast
  TGI: > 75.8 µM
A549 NSCLC
  TGI: > 100 µM
NCI-H460 lung
  TGI: > 100 µM
MOLT-4 leukemia
  TGI: > 100 µM
OVCAR-8 ovarian
  TGI: > 100 µM
RXF 393 renal
  TGI: > 73.3 µM
HL-60(TB) leukemia
  TGI: 19 µM
RPMI-8226 leukemia
  TGI: > 100 µM
NCI/ADR-RES ovarian
  TGI: > 100 µM
DU-145 prostate
  TGI: > 100 µM
SK-MEL-28 melanoma
  TGI: > 100 µM
SN12C renal
  TGI: > 100 µM
HT29 colon
  TGI: > 100 µM
SNB-75 CNS
  TGI: > 100 µM
UACC-62 melanoma
  TGI: > 100 µM
HOP-92 NSCLC
  TGI: > 100 µM
TK-10 renal
  TGI: > 100 µM
T-47D breast
  TGI: 63.2 µM
SK-MEL-2 melanoma
  TGI: > 100 µM
SR leukemia
  TGI: > 100 µM
A498 renal
  TGI: > 100 µM
NCI-H226 lung
  TGI: > 100 µM
OVCAR-3 ovarian
  TGI: > 82.1 µM
IGROV1 ovarian
  TGI: > 100 µM
HCT-15 colon
  TGI: > 100 µM
NCI-H23 lung
  TGI: > 100 µM
NCI-H522 lung
  TGI: 97.2 µM
CAKI-1 renal
  TGI: > 100 µM
SF-539 CNS
  TGI: > 100 µM
K-562 leukemia
  TGI: > 100 µM
OVCAR-4 ovarian
  TGI: > 100 µM
OVCAR-5 ovarian
  TGI: > 100 µM
SK-OV-3 ovarian
  TGI: > 100 µM
HCT-116 colon
  TGI: > 100 µM
COLO 205 colon
  TGI: > 100 µM
MALME-3M melanoma
  TGI: > 100 µM
MDA-N
  TGI: 57.5 µM
SF-295 CNS
  TGI: > 100 µM
MCF7 breast
  TGI: > 100 µM
SW-620 colon
  TGI: > 100 µM
LOX IMVI melanoma
  TGI: > 64.8 µM
U251 CNS
  TGI: > 100 µM
BT-549 breast
  TGI: > 100 µM
M14 melanoma
  TGI: > 100 µM
HOP-62 NSCLC
  TGI: > 100 µM
UO-31 renal
  TGI: > 100 µM
UACC-257 melanoma
  TGI: > 100 µM
PC-3 prostate
  TGI: > 100 µM
SK-MEL-5 melanoma
  TGI: > 100 µM
SF-268 CNS
  TGI: > 87.4 µM
786-0 renal
  TGI: > 100 µM
ACHN renal
  TGI: > 100 µM
HCC-2998 colon
  TGI: 62.4 µM
MDA-MB-231 breast
  TGI: > 100 µM
SNB-19 CNS
  TGI: > 100 µM
MDA-MB-435
  TGI: 38.2 µM
EKVX NSCLC
  TGI: > 100 µM

## O=c1[nH]cc(N=Cc2cc(Cl)ccc2O)c(=O)[nH]1
CCRF-CEM leukemia
  TGI: 19 µM
KM12 colon
  TGI: > 100 µM
HS 578T breast
  TGI: > 100 µM
A549 NSCLC
  TGI: > 100 µM
NCI-H460 lung
  TGI: > 100 µM
MOLT-4 leukemia
  TGI: 63.1 µM
OVCAR-8 ovarian
  TGI: 76.9 µM
RXF 393 renal
  TGI: > 100 µM
HL-60(TB) leukemia
  TGI: 52.6 µM
RPMI-8226 leukemia
  TGI: 53.3 µM
NCI/ADR-RES ovarian
  TGI: 53.6 µM
DU-145 prostate
  TGI: 66.8 µM
SK-MEL-28 melanoma
  TGI: 70.1 µM
SN12C renal
  TGI: > 100 µM
HT29 colon
  TGI: > 100 µM
UACC-62 melanoma
  TGI: 71.7 µM
HOP-92 NSCLC
  TGI: 89.8 µM
TK-10 renal
  TGI: > 100 µM
T-47D breast
  TGI: 60.7 µM
SK-MEL-2 melanoma
  TGI: 64.5 µM
SR leukemia
  TGI: 24.8 µM
A498 renal
  TGI: > 100 µM
NCI-H226 lung
  TGI: 98 µM
OVCAR-3 ovarian
  TGI: > 100 µM
IGROV1 ovarian
  TGI: 52.6 µM
HCT-15 colon
  TGI: > 100 µM
NCI-H23 lung
  TGI: > 100 µM
NCI-H522 lung
  TGI: > 100 µM
CAKI-1 renal
  TGI: > 100 µM
SF-539 CNS
  TGI: 7.43 µM
K-562 leukemia
  TGI: > 100 µM
OVCAR-4 ovarian
  TGI: 12.3 µM
OVCAR-5 ovarian
  TGI: > 100 µM
SK-OV-3 ovarian
  TGI: 59.4 µM
HCT-116 colon
  TGI: > 100 µM
COLO 205 colon
  TGI: 75.7 µM
MALME-3M melanoma
  TGI: 73.8 µM
MDA-N
  TGI: > 100 µM
SF-295 CNS
  TGI: 42.1 µM
MCF7 breast
  TGI: > 100 µM
U251 CNS
  TGI: 88.2 µM
BT-549 breast
  TGI: 70 µM
M14 melanoma
  TGI: 48.9 µM
HOP-62 NSCLC
  TGI: 53.7 µM
UO-31 renal
  TGI: > 100 µM
UACC-257 melanoma
  TGI: > 100 µM
PC-3 prostate
  TGI: > 100 µM
SK-MEL-5 melanoma
  TGI: > 100 µM
SF-268 CNS
  TGI: 47.3 µM
786-0 renal
  TGI: 70.6 µM
ACHN renal
  TGI: 61.6 µM
HCC-2998 colon
  TGI: > 100 µM
MDA-MB-231 breast
  TGI: > 100 µM
SNB-19 CNS
  TGI: > 100 µM
MDA-MB-435
  TGI: > 100 µM
EKVX NSCLC
  TGI: > 100 µM
